Test results reported in patent publication US20250228239A1, “MOLECULES HAVING PESTICIDAL UTILITY, AND INTERMEDIATES, COMPOSITIONS, AND PROCESSES, RELATED THERETO” (priority 2024, published 2025).
Read-outs that look alike come from different tables or passages of the source.

Columns and labels:
Type in all cases: in vivo
[1] = tested on: Beet Armyworm (Spodoptera exigua, LAPHEG); test: Bioassays on Beet Armyworm (BAW), 128-well diet tray assay; conditions: Spodoptera exigua
Outline: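 Eight diet wells per compound were treated at 50 μg/cm^2 (acetone-water 90:10), dried, then infested with 1–5 second-instar larvae each. After five to seven days at 25 °C under 14:10 photoperiod, mortality was scored and averaged across wells.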

[2] = tested on: Cabbage Looper (Trichoplusia ni, TRIPNI); test: Bioassays on Cabbage Looper (CL), 128-well diet tray assay; conditions: Trichoplusia ni
Outline: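 One to five second-instar larvae per well on artificial diet surface-treated with 50 μg/cm^2 test molecule (applied in 90:10 acetone-water, dried). Held 5–7 days at 25° C, 14:10 light-dark; percent mortality recorded per well and averaged over eight wells.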

[3] = tested on: Yellow Fever Mosquito (Aedes aegypti, AEDSAE); conditions: for YFM rating: Table ABC / ABC-DP rating
Outline: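 Compounds from 4000 ppm DMSO stocks were diluted in 90:10 water/acetone and dispensed into wells, then infested with about 1-day-old larvae in liver-powder water. Covered plates were held at room temperature for 3 days and each well was scored for mortality against a rating scale; six replicate plates per compound.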

[4] = Beet Armyworm, rating class, read-out: BAW
[5] = Cabbage Looper, rating class, read-out: CL
[6] = Yellow Fever Mosquito, rating class
[7] = Table ABC: Biological Results, species BAW, read-out: BAW
[8] = Table ABC: Biological Results, species CL, read-out: CL
[9] = Table ABC: Biological Results, species YFM
[10] = Beet Armyworm, Table ABC / ABC-DP rating, read-out: BAW rating
[11] = Cabbage Looper, Table ABC / ABC-DP rating, read-out: CL rating

## CN(C(=O)C(F)F)c1c(F)ccc(NC(=O)c2cc(NC(=O)[C@H]3[C@H](c4cc(Cl)c(Cl)c(Cl)c4)C3(Cl)Cl)ccc2Cl)c1F [F1461, 2-Chloro-5-((1R,3R)-2,2-dichloro-3-(3,4,5-trichlorophenyl)cyclopropane-1-carboxamido)-N-(3-(2,2-difluoro-N-methylacetamido)-2,4-difluorophenyl)benzamide]
[1]; [4]
  pest or weed control at 50 µg/cm2: 50 to 100%
[2]; [5]
  pest or weed control at 50 µg/cm2: 50 to 100%
[3]; [6]
  YFM: A (80–100)

## CC(=O)Nc1ccc(NC(=O)c2cc(NC(=O)[C@H]3[C@H](c4ccc(F)c(Cl)c4)C3(Cl)Cl)cc(Cl)c2C)cc1 (relative stereo) [F1191, trans-N-(4-Acetamidophenyl)-3-chloro-5-(2,2-dichloro-3-(3-chloro-4-fluorophenyl)cyclopropane-1-carboxamido)-2-methylbenzamide]
[1]; [7]
  pest or weed control at 50 µg/cm2: 50 to 100%
[2]; [8]
  pest or weed control at 50 µg/cm2: 50 to 100%
[3]; [9]
  YFM: A (80–100)

## C=Cc1c(F)ccc(NC(=O)c2cc(NC(=O)[C@H]3[C@H](c4cc(Cl)cc(Cl)c4)C3(Cl)Cl)ccc2Cl)c1F (relative stereo) [F1314, trans-2-Chloro-5-(2,2-dichloro-3-(3,5-dichlorophenyl)cyclopropane-1-carboxamido)-N-(2,4-difluoro-3-vinylphenyl)benzamide]
[1]; [7]
  pest or weed control at 50 µg/cm2: 50 to 100%
[2]; [8]
  pest or weed control at 50 µg/cm2: 50 to 100%
[3]; [9]
  YFM: A (80–100)

## Cc1c(NC(=O)c2cc(NC(=O)[C@H]3[C@H](c4ccc(F)c(C(F)(F)F)c4)C3(Cl)Cl)ccc2Cl)ccc(Br)c1[N+](=O)[O-] [F1688, N-(4-Bromo-2-methyl-3-nitrophenyl)-2-chloro-5-((1R,3R)-2,2-dichloro-3-(4-fluoro-3-(trifluoromethyl)phenyl)cyclopropane-1-carboxamido)benzamide]
[1]; [4]
  pest or weed control at 50 µg/cm2: 50 to 100%
[2]; [5]
  pest or weed control at 50 µg/cm2: 50 to 100%
[3]; [6]
  YFM: A (80–100)

## C=CCN(C(=O)c1cc(NC(=O)[C@H]2[C@H](c3ccc(F)c(C(F)(F)F)c3)C2(Cl)Cl)ccc1Cl)c1ccc(F)c(N)c1F (relative stereo) [F1113, trans-N-Allyl-N-(3-amino-2,4-difluorophenyl)-2-chloro-5-(2,2-dichloro-3-(4-fluoro-3-(trifluoromethyl)phenyl)cyclopropane-1-carboxamido)benzamide]
[1]; [7]
  pest or weed control at 50 µg/cm2: 50 to 100%
[2]; [8]
  pest or weed control at 50 µg/cm2: 50 to 100%
[3]; [9]
  YFM: A (80–100)

## CC1(C)C(=O)CC1C(=O)Nc1c(F)ccc(NC(=O)c2cc(NC(=O)[C@H]3[C@H](c4ccc(F)c(C(F)(F)F)c4)C3(Cl)Cl)ccc2Cl)c1F (stereo partly drawn) [F1507, 2-Chloro-5-((1R,3R)-2,2-dichloro-3-(4-fluoro-3-(trifluoromethyl)phenyl)cyclopropane-1-carboxamido)-N-(3-(2,2-dimethyl-3-oxocyclobutane-1-carboxamido)-2,4-difluorophenyl)benzamide]
[1]; [4]
  pest or weed control at 50 µg/cm2: 50 to 100%
[2]; [5]
  pest or weed control at 50 µg/cm2: 50 to 100%
[3]; [6]
  YFM: A (80–100)

## Cc1cc(NC(=O)[C@H]2[C@H](c3ccc(F)c(Cl)c3)C2(Cl)Cl)cc(C(=O)NCC(F)(F)F)c1Cl (relative stereo) [F2038, trans-2-Chloro-5-(2,2-dichloro-3-(3-chloro-4-fluorophenyl)cyclopropane-1-carboxamido)-3-methyl-N-(2,2,2-trifluoroethyl)benzamide]
[1]; [10]
  pest or weed control at 50 µg/cm2: 50 to 100%
[2]; [11]
  pest or weed control at 50 µg/cm2: 50 to 100%
[3]; Yellow Fever Mosquito
  YFM rating: A (80–100)

## O=C(NN=Cc1cc(F)ccc1F)c1cc(NC(=O)[C@H]2[C@H](c3cc(Cl)cc(Cl)c3)C2(Cl)Cl)ccc1Cl (relative stereo) [F3003, trans-2,2-Dichloro-N-(4-chloro-3-(2-(2,5-difluorobenzylidene)hydrazine-1-carbonyl)phenyl)-3-(3,5-dichlorophenyl)cyclopropane-1-carboxamide]
[1]; 168 h, second instar larvae, 50 μg/cm^2 of test molecule on artificial diet, 25° C., five to seven days, average of eight wells, read-out: BAW % Control (or Mortality) rating
  mortality at 50 µg/cm2: 50 to 100%
[1]; [10]
  pest or weed control at 50 µg/cm2: 50 to 100%
[2]; 168 h, second instar larvae, 50 μg/cm^2 of test molecule on artificial diet, 25° C., five to seven days, average of eight wells, read-out: CL % Control (or Mortality) rating
  mortality at 50 µg/cm2: 50 to 100%
[2]; [11]
  pest or weed control at 50 µg/cm2: 50 to 100%
[3]; Yellow Fever Mosquito
  YFM rating: A (80–100)
[3]; about 1 day-old larvae, 4000 ppm master solution diluted with 90:10 water/acetone, 15 μL per well plus 220 μL larval mixture, 3 days, mortality
  YFM % Control (or Mortality) rating: A (80–100)

## O=C(Nc1ccc(F)c(NC(=O)C(F)F)c1F)c1cc(NC(=O)[C@H]2[C@H](c3ccc(F)c(Cl)c3)C2(Cl)Cl)ccc1Cl [F1270, 2-Chloro-5-((1R,3R)-2,2-dichloro-3-(3-chloro-4-fluorophenyl)cyclopropane-1-carboxamido)-N-(3-(2,2-difluoroacetamido)-2,4-difluorophenyl)benzamide]
[1]; [7]
  pest or weed control at 50 µg/cm2: 50 to 100%
[2]; [8]
  pest or weed control at 50 µg/cm2: 50 to 100%
[3]; [9]
  YFM: A (80–100)

## O=C(Nc1ccc(F)cc1F)c1cc(NC(=O)[C@H]2[C@H](c3ccc(F)c(Cl)c3)C2(Cl)Cl)cc(F)c1Cl (relative stereo) [F1153, trans-2-Chloro-5-(2,2-dichloro-3-(3-chloro-4-fluorophenyl)cyclopropane-1-carboxamido)-N-(2,4-difluorophenyl)-3-fluorobenzamide]
[1]; [7]
  pest or weed control at 50 µg/cm2: 50 to 100%
[2]; [8]
  pest or weed control at 50 µg/cm2: 50 to 100%
[3]; [9]
  YFM: A (80–100)

## Cc1cc(NCc2ccc(OC(F)(F)F)cc2)ccc1NC(=O)c1cc(NC(=O)[C@H]2[C@H](c3cc(Cl)cc(Cl)c3)C2(Cl)Cl)ccc1Cl (relative stereo) [F1117, trans-2-Chloro-5-(2,2-dichloro-3-(3,5-dichlorophenyl)cyclopropane-1-carboxamido)-N-(2-methyl-4-((4-(trifluoromethoxy)benzyl)amino)phenyl)benzamide]
[1]; [7]
  pest or weed control at 50 µg/cm2: 50 to 100%
[2]; [8]
  pest or weed control at 50 µg/cm2: 50 to 100%
[3]; [9]
  YFM: A (80–100)

## CC(OC(F)(F)F)C(=O)Nc1c(F)ccc(NC(=O)c2cc(NC(=O)[C@H]3[C@H](c4ccc(F)c(Cl)c4)C3(Cl)Cl)ccc2Cl)c1F (stereo partly drawn) [F1769, 2-Chloro-5-((1R,3R)-2,2-dichloro-3-(3-chloro-4-fluorophenyl)cyclopropane-1-carboxamido)-N-(2,4-difluoro-3-(2-(trifluoromethoxy)propanamido)phenyl)benzamide]
[1]; [10]
  pest or weed control at 50 µg/cm2: 50 to 100%
[2]; [11]
  pest or weed control at 50 µg/cm2: 50 to 100%
[3]; Yellow Fever Mosquito
  YFM rating: A (80–100)

## CN(C(=O)c1cc(NC(=O)[C@H]2[C@H](c3ccc(F)c(C(F)(F)F)c3)C2(Cl)Cl)ccc1Cl)c1ccc(F)c(N)c1F (relative stereo) [F1112, trans-N-(3-amino-2,4-difluorophenyl)-2-chloro-5-(2,2-dichloro-3-(4-fluoro-3-(trifluoromethyl)phenyl)cyclopropane-1-carboxamido)-N-methylbenzamide]
[1]; [7]
  pest or weed control at 50 µg/cm2: 50 to 100%
[2]; [8]
  pest or weed control at 50 µg/cm2: 50 to 100%
[3]; [9]
  YFM: A (80–100)

## Nc1c(F)ccc(NC(=O)c2cc(NC(=O)[C@H]3[C@@H](c4cc(F)c(Cl)c(Cl)c4)C3(Cl)Cl)ccc2Cl)c1F (relative stereo) [F1047, cis-N-(3-Amino-2,4-difluorophenyl)-2-chloro-5-(2,2-dichloro-3-(3,4-dichloro-5-fluorophenyl)cyclopropane-1-carboxamido)benzamide]
[1]; [7]
  pest or weed control at 50 µg/cm2: 50 to 100%
[2]; [8]
  pest or weed control at 50 µg/cm2: 50 to 100%
[3]; [9]
  YFM: A (80–100)

## C#CCCCC(=O)Nc1c(F)ccc(NC(=O)c2cc(NC(=O)[C@H]3[C@H](c4ccc(F)c(C(F)(F)F)c4)C3(Cl)Cl)ccc2Cl)c1F [F1857]
[1]; [10]
  pest or weed control at 50 µg/cm2: 50 to 100%
[2]; [11]
  pest or weed control at 50 µg/cm2: 50 to 100%
[3]; Yellow Fever Mosquito
  YFM rating: A (80–100)

## CC(Cl)CC(=O)Nc1c(F)ccc(NC(=O)c2cc(NC(=O)[C@H]3[C@H](c4ccc(F)c(C(F)(F)F)c4)C3(Cl)Cl)ccc2Cl)c1F (stereo partly drawn) [F1669, 2-Chloro-N-(3-(3-chlorobutanamido)-2,4-difluorophenyl)-5-((1R,3R)-2,2-dichloro-3-(4-fluoro-3-(trifluoromethyl)phenyl)cyclopropane-1-carboxamido)benzamide]
[1]; [4]
  pest or weed control at 50 µg/cm2: 50 to 100%
[2]; [5]
  pest or weed control at 50 µg/cm2: 50 to 100%
[3]; [6]
  YFM: A (80–100)

## O=C(COC(F)(F)F)Nc1c(F)ccc(NC(=O)c2cc(NC(=O)[C@H]3[C@H](c4ccc(Cl)c(Cl)c4)C3(Cl)Cl)ccc2Cl)c1F [F1766, 2-Chloro-5-((1R,3R)-2,2-dichloro-3-(3,4-dichlorophenyl)cyclopropane-1-carboxamido)-N-(2,4-difluoro-3-(2-(trifluoromethoxy)acetamido)phenyl)benzamide]
[1]; [4]
  pest or weed control at 50 µg/cm2: 50 to 100%
[2]; [5]
  pest or weed control at 50 µg/cm2: 50 to 100%
[3]; [6]
  YFM: A (80–100)

## O=C(Nc1ccc(F)c(NC(=O)C2CCCO2)c1F)c1cc(NC(=O)[C@H]2[C@H](c3cc(F)cc(C(F)(F)F)c3)C2(Cl)Cl)ccc1Cl (stereo partly drawn) [F1706, N-(3-(2-Chloro-5-((1R,3R)-2,2-dichloro-3-(3-fluoro-5-(trifluoromethyl)phenyl)cyclopropane-1-carboxamido)benzamido)-2,6-difluorophenyl)tetrahydrofuran-2-carboxamide]
[1]; [4]
  pest or weed control at 50 µg/cm2: 50 to 100%
[2]; [5]
  pest or weed control at 50 µg/cm2: 50 to 100%
[3]; [6]
  YFM: A (80–100)
